Values after ≈ are worked out from the molar mass of the structure shown.
Settings: for aqueous solubility: pH 6.8

Row | Compound | MDR1-MDCK efflux ratio | intrinsic clearance, human liver microsomes | intrinsic clearance, rat liver microsomes | aqueous solubility
1 | C#CCNC(=O)Cc1coc2cc(OC)ccc12 | 0.646 | 15.4 mL/min/kg | 183 mL/min/kg | 56.4 µg/mL (≈ 232 µM)
2 | COc1ccccc1CNc1cn[nH]c(=O)c1Cl | 1.3 | ≤ 4.74 mL/min/kg | 104 mL/min/kg | –
3 | Cc1cccc([C@H]2CN(C(=O)C3CCCC3)[C@@H]3CCN(CC4CC4)C[C@H]23)c1 | 1.86 | 555 mL/min/kg | 2330 mL/min/kg | –
4 | Cc1ccccc1-c1cc(N)n(Cc2ccccc2)n1 | – | 33.2 mL/min/kg | 302 mL/min/kg | –
5 | COc1ccc2nc(C)nc(N3CC(CO)C3)c2c1 | 11.5 | 5.26 mL/min/kg | 13.6 mL/min/kg | 29.3 µg/mL (≈ 113 µM)
6 | CN(C)c1ccc(-c2ccc(C(=O)NCCN3CCCC3=O)cc2)nn1 | 55.2 | ≤ 4.74 mL/min/kg | 75 mL/min/kg | –
7 | Cc1ccc(NS(C)(=O)=O)c(C(=O)N(C)c2ccc3ccccc3c2)c1 | 1.8 | 12.4 mL/min/kg | 1100 mL/min/kg | 54.4 µg/mL (≈ 148 µM)
8 | COc1ccc(-c2nnc(-c3ccccc3)o2)cc1OC | 0.227 | 49.4 mL/min/kg | 50.8 mL/min/kg | 4.34 µg/mL (≈ 15.4 µM)
9 | O=c1c2ccncc2ncn1[C@H]1CCN(Cc2ccccc2)C1 | 0.442 | 22.6 mL/min/kg | 796 mL/min/kg | –
10 | CC(C)c1cc(N(C)Cc2nc(C3CC3)n[nH]2)n[nH]1 | 16.1 | ≤ 4.74 mL/min/kg | 36.7 mL/min/kg | –
11 | Cc1ccc(C(=O)COC(=O)c2cc(O)nc3ccccc23)cc1 | 0.502 | – | – | 0.69 µg/mL (≈ 2.15 µM)
12 | CCCNC(=O)c1ccnc(N(C)C)c1 | 0.616 | 39 mL/min/kg | 83.5 mL/min/kg | 38.1 µg/mL (≈ 184 µM)
13 | O=c1c(N2CCCC2)c(Cl)cnn1-c1ccccc1 | – | – | – | 17.1 µg/mL (≈ 62.1 µM)
14 | Cc1ccnc(Oc2cc(N)ccc2C)c1 | 0.542 | ≤ 4.74 mL/min/kg | 230 mL/min/kg | 35.3 µg/mL (≈ 165 µM)
15 | CN(C)CC(=O)N1CCC(c2ccc(NC(=O)c3nc(C#N)c[nH]3)c(C3=CCCCC3)c2)CC1 | 42.6 | 12.4 mL/min/kg | 56.3 mL/min/kg | –
16 | COc1ccc(C(=O)N2CCCC2)cc1NC(C)C | 1.08 | 7.82 mL/min/kg | 86.8 mL/min/kg | 35.9 µg/mL (≈ 137 µM)
17 | Cc1cc(=O)n(C)c2cc(N3C(=O)CC[C@H](NS(=O)(=O)CC(C)C)[C@H]3c3ccc(Cl)cc3)ccc12 | 1.48 | 370 mL/min/kg | 944 mL/min/kg | 44.4 µg/mL (≈ 86 µM)
18 | CCC(=O)N(C)c1ccccc1C(=O)O | 1.28 | 23.7 mL/min/kg | 1130 mL/min/kg | 36.4 µg/mL (≈ 176 µM)
19 | CCOCCC(=O)N1CCC2(CCCN(C)CC2)CC1 | 2.92 | ≤ 4.74 mL/min/kg | 30.6 mL/min/kg | –
20 | CCc1[nH]nc(NC2CCN(C(C)C)CC2)c1C | 13.7 | ≤ 4.74 mL/min/kg | 163 mL/min/kg | –

Row | Compound | MDR1-MDCK efflux ratio | intrinsic clearance, human liver microsomes | intrinsic clearance, rat liver microsomes | aqueous solubility
21 | CN(C)c1nc(N)nc(Sc2ccccc2)n1 | 0.746 | 108 mL/min/kg | 642 mL/min/kg | 3.11 µg/mL (≈ 12.6 µM)
22 | COc1ccccc1N1CCN(c2nc(-c3ccc(C)cc3)cc(=O)[nH]2)CC1 | 1.75 | – | – | 0.2 µg/mL (≈ 0.531 µM)
23 | O=c1cc(-c2cc(F)c(Cl)nc2Cl)[nH]c2c(-c3ccccc3)c(C(F)(F)F)nn12 | 1.91 | ≤ 4.74 mL/min/kg | 19.4 mL/min/kg | –
24 | CCC1(CC)NC(=O)N(CC(=O)N2CCOCC3(CCCC3)C2)C1=O | 81.5 | 30.6 mL/min/kg | 217 mL/min/kg | 63.4 µg/mL (≈ 180 µM)
25 | COc1cc2c(cc1OC)[C@@H]1CC(=O)[C@@H](CC(C)C)CN1CC2 | 0.721 | 57.8 mL/min/kg | 330 mL/min/kg | –
26 | Cc1nc(-c2ccc(C)c(O)c2)n(C(C)(C)C)n1 | – | ≤ 4.74 mL/min/kg | 124 mL/min/kg | 12.1 µg/mL (≈ 49.3 µM)
27 | COc1cccc(/C=C2/N=C(c3ccccc3)NC2=O)c1OC | – | – | – | 0.33 µg/mL (≈ 1.07 µM)
28 | COCC(=O)Nc1ccc(NC(=O)Cc2cc(C)ccc2C)cc1 | 1.2 | 36.6 mL/min/kg | 76.6 mL/min/kg | –
29 | CCCCNC(=O)c1ccc2c(c1)nnn2C | – | ≤ 4.74 mL/min/kg | ≤ 10.7 mL/min/kg | 26 µg/mL (≈ 112 µM)
30 | CN(CCO)C(=O)c1ccc(-c2cccc(C(F)(F)F)n2)cc1 | 1.52 | ≤ 4.74 mL/min/kg | 54.3 mL/min/kg | –
31 | CCONC(=O)c1sc(C)nc1C | 0.788 | ≤ 4.74 mL/min/kg | ≤ 10.7 mL/min/kg | 29 µg/mL (≈ 145 µM)
32 | Cc1noc(COc2cccnc2C)n1 | 0.706 | ≤ 4.74 mL/min/kg | 23.6 mL/min/kg | –
33 | N#Cc1nc(-c2ccccc2)oc1NCc1ccc2c(c1)OCO2 | – | 208 mL/min/kg | 707 mL/min/kg | –
34 | O=C1CNC(=O)N1CCCN1CCc2sccc2C1 | 1.52 | ≤ 4.74 mL/min/kg | 28.6 mL/min/kg | 51.2 µg/mL (≈ 183 µM)
35 | Cc1ccccc1NC(=O)Cn1nnc(C2CC2)n1 | 0.895 | ≤ 4.74 mL/min/kg | 51.4 mL/min/kg | –
36 | CC(C(=O)Nc1ccccc1)N1CCCC(c2nc3ccccc3o2)C1 (stereo not drawn) | 0.831 | – | 3000 mL/min/kg | 26.9 µg/mL (≈ 76.8 µM)
37 | O=C(c1ccccc1F)N1CCC[C@@H]1Cn1nnn(-c2cccs2)c1=O | 0.769 | 62.4 mL/min/kg | 1240 mL/min/kg | 33 µg/mL (≈ 88.4 µM)
38 | CN(C)c1ccncc1CN1CCN(c2ccc(C(N)=O)cc2)CC1 | 18.8 | ≤ 4.74 mL/min/kg | ≤ 10.7 mL/min/kg | –
39 | CCCOc1ccn2c(C(C)=O)cc(-c3ccccc3S(C)(=O)=O)c2c1 | 1.33 | 56.1 mL/min/kg | 565 mL/min/kg | –
40 | c1ccc(-c2nsc(N3CCCN(c4nccs4)CC3)n2)cc1 | 0.656 | 145 mL/min/kg | 1470 mL/min/kg | 29.6 µg/mL (≈ 86.2 µM)

Row | Compound | MDR1-MDCK efflux ratio | intrinsic clearance, human liver microsomes | intrinsic clearance, rat liver microsomes | aqueous solubility
41 | CC(C)(C)c1ccc(C2=NC3(CCNCC3)NC2=O)cc1 | 33.8 | 6.52 mL/min/kg | 59.6 mL/min/kg | 45 µg/mL (≈ 158 µM)
42 | Cc1ccc(C)c2nc3c(cc12)CNCCO3 | 0.525 | 23.7 mL/min/kg | 234 mL/min/kg | –
43 | Cn1cc(C(=O)N2CCC(c3cc(C(F)(F)F)c4c(n3)CCNC4=O)CC2)ccc1=O | 0.752 | ≤ 4.74 mL/min/kg | ≤ 10.7 mL/min/kg | 53 µg/mL (≈ 122 µM)
44 | CCN(Cc1ccccc1)C(=O)c1cccnc1N | 0.65 | ≤ 4.74 mL/min/kg | 174 mL/min/kg | 36.7 µg/mL (≈ 144 µM)
45 | Cc1ncccc1NC(=O)OC(C)(C)C | 0.755 | ≤ 4.74 mL/min/kg | 21.1 mL/min/kg | –
46 | Cc1nc2ccc(NC(=O)c3sc(-c4ccccn4)nc3C)cc2s1 | 0.685 | 10.2 mL/min/kg | 38.5 mL/min/kg | 1.3 µg/mL (≈ 3.55 µM)
47 | CCC1(O)CN(c2ncnc3c2c(Br)nn3C)C1 | 0.85 | ≤ 4.74 mL/min/kg | 35.2 mL/min/kg | 49.1 µg/mL (≈ 157 µM)
48 | COc1ccc(-n2c(Cn3cnc(C#N)n3)nc3ccccc32)cc1 | 1.37 | 5 mL/min/kg | 664 mL/min/kg | 36 µg/mL (≈ 109 µM)
49 | CC(C)CCNC(=O)CSc1nc2ccccc2[nH]1 | 3.98 | 114 mL/min/kg | 1110 mL/min/kg | –
50 | CCNC(=O)c1ccc(-c2cc(C)cc(OC)c2OC)nc1 | 0.998 | ≤ 4.74 mL/min/kg | 93.1 mL/min/kg | 34.8 µg/mL (≈ 116 µM)
51 | CC(C)CCN1CCC(CNS(C)(=O)=O)CC1 | 2.43 | ≤ 4.74 mL/min/kg | ≤ 10.7 mL/min/kg | –
52 | Cc1cc(Nc2ccc(F)cn2)cc(C2CCN(C(=O)COc3ccccc3F)C2)n1 (stereo not drawn) | 9.5 | 115 mL/min/kg | 507 mL/min/kg | 55.6 µg/mL (≈ 131 µM)
53 | CCNc1ccnc(-c2cccc(C(=O)NCCCc3cnn(C)c3)c2)n1 | 39.2 | 26.1 mL/min/kg | 634 mL/min/kg | –
54 | O=c1c(=O)n(-c2ccc(F)c(F)c2)ccn1Cc1ccccc1Cl | 0.696 | – | – | 0.37 µg/mL (≈ 1.06 µM)
55 | NCc1ccc(-n2cnc3ccccc32)cc1Cl | – | 13 mL/min/kg | 36.1 mL/min/kg | –
56 | CCCc1ccc(-c2cccc(C(=O)N3CCN(CC(N)=O)CC3)c2)cc1 | 8.27 | 12.6 mL/min/kg | 707 mL/min/kg | –
57 | O=C(CCc1ccccc1)N1CCC(c2cccc(Cc3ccc(F)cc3)n2)CC1 | 0.727 | 1000 mL/min/kg | 4270 mL/min/kg | 4.5 µg/mL (≈ 11.2 µM)
58 | COc1cccc(/C=C2/N=C(c3ccccc3C)NC2=O)c1OC | – | – | – | 0.35 µg/mL (≈ 1.09 µM)
59 | CCC(Oc1ccccc1)C(=O)Nc1nc2ccccc2[nH]1 (stereo not drawn) | – | – | – | 11.8 µg/mL (≈ 40.1 µM)
60 | CN(C)S(=O)(=O)N(C1CCCC1)C1CC1 | – | – | – | 32.6 µg/mL (≈ 140 µM)
